Laboratory results: PubChem BioAssay AID1963827 (Molecular Pharmacology Branch, DTP, NCI, 2024)
Several values for one entry are separate records, joined by “and”; a condition that tells them apart may be missing. Equal values may be shown once.

System: 994946-033-R-J1-PDC complex spheroid viability
Assay: Anticancer human tumor 994946-033-R-J1-PDC patient-derived melanoma cell line growth inhibition [POLQ]
Settings: for viability, T/C: stronger effect = lower value
Method: Multicellular complex tumor spheroid response to Polymerase (POL) inhibitors (novobiocin, ART-558, RP6685) in combination with a variety of drugs and investigational agents in selected tumor cell lines
The POL inhibitors (novobiocin, ART-558, and RP6685) were evaluated both individually and in combination with standard of care and investigational anticancer small molecules within a complex spheroid model of solid tumors. . Complex spheroids include a stromal component modeled by human endothelial cells (HUVEC) and fibroblasts modeled by human mesenchymal stem cells (MSCs). The concentration ranges selected for each drug and investigational agent were based upon clinically achievable concentrations if the clinical Cmax of the agent was known.
Compounds. The drugs and investigational agents: novobiocin (NSC847541), ART-558 (NSC835418), RP-6685 (NSC848927), peposertib (NSC802822), ceralasertib (NSC780249), elimusertib (NSC800525), camonsertib (NSC841442), AZD-1390 (NSC803789), olaparib (NSC753686), talazoparib (NSC767125), rucaparib (NSC756644), sotorasib (NSC818433), MRTX-1133 (NSC836407), SN-38 (NSC673596), topotecan (NSC609699), epotoside (NSC141540), doxorubicin (NSC123127), gemcitabine (NSC613327), 5-fluorouracil (NSC19893), paclitaxel (NSC125973), vemurafenib (NSC761431), MSA-2 (NSC828583), SN-011 (NSC837082), adavosertib (NSC754352), prexasertib (NSC758257), carboplatin (NSC241240) and oxaliplatin (NSC266046), were obtained from the National Cancer Institute (NCI) Developmental Therapeutics Program Chemical Repository (21). The FDA-approved anticancer drug set is available from the Developmental Therapeutics Program at https://dtp.cancer.gov/organization/dscb/obtaining/. […] The stock solutions were prepared in dimethyl sulfoxide (DMSO, Sigma-Aldrich, St. Louis, MO, cat. D2650), except for the platinum compounds which were prepared in saline (Quality Biological, Gaithersburg, MD, cat. 114-055-101), at 800-fold the tested concentration and stored at -70 degrees C prior to their use. All drugs and investigational agents were tested over a range starting from a high concentration at or near the clinical Cmax and decreasing in half-log increments. If the clinical Cmax for an agent had not been determined, the highest concentration tested was 10 microM, except for SN-38, which was tested at a high concentration of 1 microM.
Cell Culture. All cells were maintained in an incubator at 37 degrees C and 5% CO2 with 95% humidity. The PDC lines were cultured according to standard operating procedures established by the NCI PDMR (https://pdmr.cancer.gov). Table 3 of the manuscript, lists the cell lines along with the number of the three cell types plated to form the mct-spheroids and media for tumor cell growth. After thawing, all PDC lines, except 997537-175-T-J1-PDC and 415267-285-R-J2-PDC, were cultured in Matrigel-coated flasks prepared with a working solution of 1X Ham's F-12 nutrient mix, without supplementation (Thermo Fisher Scientific, cat. 11765054), 100 U/mL penicillin-streptomycin (Thermo Fisher Scientific, cat. 15140122), and 2.5% Matrigel (Corning Inc., Corning, NY, cat. 354248) for the first three passages. The two PDC lines 997537-175-T-J1-PDC and 415267-285-R-J2-PDC were cultured on uncoated flasks. The 857933-349-R-J2-PDC line was cultured in 6C/Colon 1B media containing advanced DMEM/F-12 (Thermo Fisher Scientific, cat. 12634028), 10 mM HEPES (Thermo Fisher Scientific, cat. 15630080), 1X GlutaMAX supplement (Thermo Fisher Scientific, cat. 35050061), 0.1 mg/mL primocin (InvivoGen, San Diego, CA, cat. ant-pm-2), 10% defined fetal bovine serum, heat inactivated (HyClone Laboratories Inc., Logan, UT, cat. SH30070.03HI), 50% L-WRN conditioned media (ATCC, cat. CRL-3276), 1.25 mM N-Acetyl-L-cysteine (Sigma-Aldrich, cat. A9165), 10 mM nicotinamide (Sigma-Aldrich, cat. N0636), 1X B-27 supplement (Thermo Fisher Scientific, cat. 17504044), 1X N-2 supplement (Thermo Fisher Scientific, cat. […]
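Note: spheroids exposed to drugs for 7 days.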
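Throughout, for viability, T/C: 100% = DMSO vehicle treated spheroids.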

O=C(Nc1ccc(O)c(NS(=O)(=O)c2ccc(F)cc2)c1)c1ccc(-c2ccccc2)cc1
viability, T/C (compound 0.0316 µM): 68.8% and 116% and 90.9% | viability, T/C (compound 0.1 µM): 87.8% and 77.9% and 78.2% | viability, T/C (compound 0.316 µM): 83.3% and 91.7% and 96% | viability, T/C (compound 1 µM): 80.3% and 100% and 96.6% | viability, T/C (compound 3.16 µM): 89.9% and 85.7% and 90.8% | viability, T/C (compound 10 µM): 39% and 46.8% and 25.6% | IC50 (curve of compound): 7.46 µM and 9.19 µM and 6.49 µM

Cn1ncnc1[C@H]1c2n[nH]c(=O)c3cc(F)cc(c23)N[C@@H]1c1ccc(F)cc1
viability, T/C (compound 0.000316 µM): 118% and 108% and 103% | viability, T/C (compound 0.001 µM): 82.7% and 80.6% and 106% | viability, T/C (compound 0.00316 µM): 69.9% and 79.6% and 106% | viability, T/C (compound 0.01 µM): 104% and 80% and 82.1% | viability, T/C (compound 0.0316 µM): 87.1% and 53.5% and 66.7% | viability, T/C (compound 0.1 µM): 65.3% and 44.1% and 65.5% | IC50 (curve of compound): > 0.1 µM and 0.0619 µM

Cc1cccc(N(C)C(=O)C2C(O)CCN2c2nc(C)cc(C(F)(F)F)c2C#N)c1 (stereo not drawn)
viability, T/C (compound 0.1 µM): 93.6% [middle of 13 runs] | IC50 (compound alone, run of 10/31/2023): > 10 µM | IC50 (compound alone, run of 11/06/2023): > 10 µM

CCCS(=O)(=O)Nc1ccc(F)c(C(=O)c2c[nH]c3ncc(-c4ccc(Cl)cc4)cc23)c1F
viability, T/C (compound 0.0316 µM): 77.1% and 111% and 98.1% | viability, T/C (compound 0.1 µM): 88.1% and 101% and 79.8% | viability, T/C (compound 0.316 µM): 101% and 93.3% and 103% | viability, T/C (compound 1 µM): 123% and 91.3% and 106% | viability, T/C (compound 3.16 µM): 93.8% and 70.6% and 69.6% | viability, T/C (compound 10 µM): 15.7% and 25% and 19.7% | IC50 (curve of compound): 6.05 µM and 5.24 µM and 4.97 µM

CCCS(=O)(=O)Nc1ccc(F)c(C(=O)c2c[nH]c3ncc(-c4ccc(Cl)cc4)cc23)c1F + Nc1ccc(C#CCN(C(=O)Cc2ncc(C(F)(F)F)cc2C(F)(F)F)c2ccc(F)cc2)nn1
IC50 (curve of first compound, second compound 0.0316 µM): 6.87 µM | IC50 (curve of first compound, second compound 0.1 µM): 6.95 µM | IC50 (curve of first compound, second compound 0.316 µM): 6.8 µM | IC50 (curve of first compound, second compound 1 µM): 7.46 µM | IC50 (curve of first compound, second compound 3.16 µM): 7.31 µM | IC50 (curve of first compound, second compound 10 µM): 6.3 µM | viability, T/C (second compound 0.0316 µM, first compound 0.0316 µM): 64.2% | viability, T/C (second compound 0.0316 µM, first compound 0.1 µM): 88% | viability, T/C (second compound 0.0316 µM, first compound 0.316 µM): 102% | viability, T/C (second compound 0.0316 µM, first compound 1 µM): 75.3% | viability, T/C (second compound 0.0316 µM, first compound 3.16 µM): 107% | viability, T/C (second compound 0.0316 µM, first compound 10 µM): 31.9% | viability, T/C (second compound 0.1 µM, first compound 0.0316 µM): 99.6% | viability, T/C (second compound 0.1 µM, first compound 0.1 µM): 93% | viability, T/C (second compound 0.1 µM, first compound 0.316 µM): 95.9% | viability, T/C (second compound 0.1 µM, first compound 1 µM): 115% | viability, T/C (second compound 0.1 µM, first compound 3.16 µM): 100% | viability, T/C (second compound 0.1 µM, first compound 10 µM): 26.8% | viability, T/C (second compound 0.316 µM, first compound 0.0316 µM): 80.6% | viability, T/C (second compound 0.316 µM, first compound 0.1 µM): 98.9% | viability, T/C (second compound 0.316 µM, first compound 0.316 µM): 93.9% | viability, T/C (second compound 0.316 µM, first compound 1 µM): 118% | viability, T/C (second compound 0.316 µM, first compound 3.16 µM): 84.5% | viability, T/C (second compound 0.316 µM, first compound 10 µM): 32.5% | viability, T/C (second compound 1 µM, first compound 0.0316 µM): 84.5% | viability, T/C (second compound 1 µM, first compound 0.1 µM): 94.2% | viability, T/C (second compound 1 µM, first compound 0.316 µM): 114% | viability, T/C (second compound 1 µM, first compound 1 µM): 124% | viability, T/C (second compound 1 µM, first compound 3.16 µM): 108% | viability, T/C (second compound 1 µM, first compound 10 µM): 31.3% | viability, T/C (second compound 3.16 µM, first compound 0.0316 µM): 95.5% | viability, T/C (second compound 3.16 µM, first compound 0.1 µM): 134% | viability, T/C (second compound 3.16 µM, first compound 0.316 µM): 99.2% | viability, T/C (second compound 3.16 µM, first compound 1 µM): 127% | viability, T/C (second compound 3.16 µM, first compound 3.16 µM): 90.9% | viability, T/C (second compound 3.16 µM, first compound 10 µM): 34.6% | viability, T/C (second compound 10 µM, first compound 0.0316 µM): 114% | viability, T/C (second compound 10 µM, first compound 0.1 µM): 85% | viability, T/C (second compound 10 µM, first compound 0.316 µM): 85.9% | viability, T/C (second compound 10 µM, first compound 1 µM): 96.2% | viability, T/C (second compound 10 µM, first compound 3.16 µM): 95.6% | viability, T/C (second compound 10 µM, first compound 10 µM): 19.6%

C#Cc1c(F)ccc2cc(O)cc(-c3ncc4c(N5CC6CCC(C5)N6)nc(OCC56CCCN5CC(F)C6)nc4c3F)c12 (stereo not drawn)
viability, T/C (compound 0.0316 µM): 78.6% and 88.4% and 92.6% | viability, T/C (compound 0.1 µM): 114% and 85.9% and 77.6% | viability, T/C (compound 0.316 µM): 100% and 90.5% and 92% | viability, T/C (compound 1 µM): 85.9% and 83.8% and 79.2% | viability, T/C (compound 3.16 µM): 77.8% and 81.5% and 90.7% | viability, T/C (compound 10 µM): 12.6% and 21.5% and 6.41% | IC50 (curve of compound): 5.08 µM and 5.79 µM and 5.34 µM
